The results in this text go back to PubChem BioAssay AID1963958 (Molecular Pharmacology Branch, DTP, NCI, 2024).

This assay concerns MDA-MB-231 multicell spheroids, viability. The experiment in a line: Anticancer human tumor MDA-MB-231 cell line growth inhibition [PI3K].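 For all read-outs here: spheroids exposed to agents for seven days before reading.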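 For viability, T/C: percent of vehicle control luminescence with DMSO treated spheroids as 100%.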 The settings on record: for viability, T/C: stronger effect = lower value. An excerpt:
Combinatorial screen of targeted agents with the PI3K inhibitors inavolisib, alpelisib, duvelisib, and copanlisib in multi-cell type tumor spheroids
A high-throughput screen of multi-cell type tumor spheroids was designed to identify active combinations of targeted small molecules and PI3K pathway inhibitors. Complex spheroids include a stromal component modeled by human endothelial cells (HUVEC) and fibroblasts modeled by human mesenchymal stem cells (MSCs). The concentration ranges selected for each drug and investigational agent were based upon clinically achievable concentrations if the clinical Cmax of the agent was known.
Compounds. The drugs and investigational agents: inavolisib (NSC800729), alpelisib (NSC765974), duvelisib (NSC772469), copanlisib (NSC816437), ipatasertib (NSC767898), afuresertib (NSC778305), talazoparib (NSC767125), sapanisertib (NSC764658), selumetinib (NSC741078), tovorafenib (DAY101, NSC766906), vemurafenib (NSC761431), ravoxertinib (NSC781343), sotorasib (NSC818433), MRTX1133 (NSC 836407), abemaciclib (NSC 768073), palbociclib (NSC758247), venetoclax (NSC 766270), SY5609 (NSC837396), enzalutamide (NSC755605), and darolutamide (NSC825331), were obtained from the National Cancer Institute (NCI) Developmental Therapeutics Program Chemical Repository. The FDA-approved anticancer drug set is available from the NCI Developmental Therapeutics Program. […] The stock solutions were prepared in dimethyl sulfoxide (DMSO, Sigma-Aldrich, St. Louis, MO, cat. D2650) at 800-fold the tested concentration and stored at -70 degrees C prior to their use. All drugs and investigational agents were tested over a range starting from a high concentration at or near the clinical Cmax and decreasing in half-log increments. If the clinical Cmax for an agent had not been determined, the highest concentration tested was 10 microM.
Cell Culture. All cells were maintained in an incubator at 37 degrees C and 5% CO2 with 95% humidity. The PDC lines were cultured according to standard operating procedures established by the NCI PDMR (https://pdmr.cancer.gov/sops/default.htm). All PDCs were thawed and cultured in Matrigel-coated flasks prepared with a working solution of 1X Ham's F-12 nutrient mix, without supplementation (Invitrogen, Waltham, MA, cat. 11765054), 100 U/mL penicillin-streptomycin (Invitrogen, cat. 15140122), and 2.5% Matrigel (Corning Inc., Corning, NY, cat. 354248) for the first three passages. The 354836-022-R-J1-PDC, 475296-252-R-J1-PDC, and 997726-040-R-J2-PDC lines were cultured in 6A media, which includes advanced DMEM/F-12 (Thermo Fisher Scientific, cat. 12634028), 10 mM HEPES (Thermo Fisher Scientific, cat. 15630080), 1X GlutaMAX supplement (Thermo Fisher Scientific, cat. 35050061), 0.1 mg/mL primocin (InvivoGen, San Diego, CA, cat. ant-pm-2), 10% defined fetal bovine serum, heat inactivated (HyClone Laboratories Inc., Logan, UT, cat. SH30070.03HI), 50% L-WRN conditioned media (ATCC, cat. CRL-3276), 1.25 mM N-Acetyl-L-cysteine (Sigma-Aldrich, cat. A9165), 10 mM nicotinamide (Sigma-Aldrich, cat. N0636), 1X B-27 supplement (Thermo Fisher Scientific, cat. 17504044), 1X N-2 supplement (Thermo Fisher Scientific, cat. 17502048), and 10 microM Y-27632 dihydrochloride (Tocris Bioscience, Bristol, United Kingdom, cat. 1254). The 624824-186-R-J2-PDC line was cultured in 6C/Colon 1B media, which includes all 6A media components plus 50 ng/mL human EGF recombinant protein (Thermo Fisher Scientific, cat. PHG0311). […]

[1] abbreviates: compound alone, run of 05/08/2023.

Where “and” joins values, the source holds several entries; their conditions need not be identical. Identical values can stand only once.

As usually defined, the viability, T/C is the ratio of treated to control. As usually defined, the IC50 is the concentration that gives 50% inhibition. Consider `CC(=O)c1c(C)c2cnc(Nc3ccc(N4CCNCC4)cn3)nc2n(C2CCCC2)c1=O`, for which the viability, T/C (compound 0.000316 µM) was 105% [middle of 4 runs]; the viability, T/C (compound 0.001 µM) is 104% and 100% and 103% (2×); the viability, T/C (compound 0.00316 µM) is 101% [middle of 4 runs]; the viability, T/C (compound 0.01 µM) was 90% [middle of 4 runs]; the viability, T/C (compound 0.0316 µM) was 79.7% [middle of 4 runs]; the viability, T/C (compound 0.1 µM) was 49.9% [middle of 4 runs]. The IC50 (curve of compound) was 0.098 µM and 0.0916 µM and > 0.1 µM.

Take `CC(C)NCC(C(=O)N1CCN(c2ncnc3c2C(C)CC3O)CC1)c1ccc(Cl)cc1` (configuration not stated): the viability, T/C was 114% [middle of 4 runs] (compound 0.0316 µM); 102% [middle of 4 runs] (compound 0.1 µM); 97.3% [middle of 4 runs] (compound 0.316 µM); 87.9% [middle of 4 runs] (compound 1 µM); 70.9% [middle of 4 runs] (compound 3.16 µM); 49.8% [middle of 4 runs] (compound 10 µM). Besides, for the setting “curve of compound”, the IC50 was > 10 µM and 8.95 µM and 7.84 µM.

On to `CC(C)n1nc(-c2ccc3oc(N)nc3c2)c2c(N)ncnc21`, for which the viability, T/C (compound 0.000316 µM) is 107% [middle of 4 runs]; the viability, T/C (compound 0.001 µM) is 99.7% [middle of 4 runs]; the viability, T/C (compound 0.00316 µM) is 104% and 101% (2×) and 97.3%; the viability, T/C (compound 0.01 µM) was 84.7% [middle of 4 runs]; the viability, T/C (compound 0.0316 µM) was 67.4% [middle of 4 runs]; the viability, T/C (compound 0.1 µM) is 38.8% [middle of 4 runs]. Besides, under “curve of compound”, the IC50 was 66.7 nM [middle of 4 runs].

As for `CC(Cn1ccc(-c2ccc(C#N)c(Cl)c2)n1)NC(=O)c1cc(C(C)O)[nH]n1` (configuration not stated), the viability, T/C by setting is: (compound 0.0316 µM) 106% [middle of 4 runs]; (compound 0.1 µM) 99% [middle of 4 runs]; (compound 0.316 µM) 111% [middle of 4 runs]; (compound 1 µM) 107% [middle of 4 runs]; (compound 3.16 µM) 100% [middle of 4 runs]; (compound 10 µM) 92.5% [middle of 4 runs]. Where the note is “curve of compound”, the IC50 was above 10 µM.

Regarding `CC(Nc1ccc2c(c1)OCCn1cc(N3C(=O)OCC3C(F)F)nc1-2)C(N)=O` (configuration not stated), the viability, T/C runs as follows: (compound 0.00316 µM) 103% [middle of 8 runs]; (compound 0.01 µM) 96.1% [middle of 8 runs]; (compound 0.0316 µM) 81.9% [middle of 8 runs]; (compound 0.1 µM) 72.1% [middle of 8 runs]; (compound 0.316 µM) 64.8% [middle of 8 runs]; (compound 1 µM) 64.2% [middle of 8 runs]. Besides, the IC50 under setting [1] is above 1 µM.

As for `CC(Nc1ncnc2nc[nH]c12)c1cc2cccc(Cl)c2c(=O)n1-c1ccccc1` (configuration not stated), the viability, T/C reads like this: (compound 0.0316 µM) 105% [middle of 8 runs]; (compound 0.1 µM) 100% [middle of 8 runs]; (compound 0.316 µM) 95.5% [middle of 8 runs]; (compound 1 µM) 82.7% [middle of 8 runs]; (compound 3.16 µM) 63.9% [middle of 8 runs]; (compound 10 µM) 50.6% [middle of 8 runs].

As for `CC1(C)CCC(CN2CCN(c3ccc(C(=O)NS(=O)(=O)c4ccc(NCC5CCOCC5)c([N+](=O)[O-])c4)c(Oc4cnc5[nH]ccc5c4)c3)CC2)=C(c2ccc(Cl)cc2)C1`, the viability, T/C reads like this: (compound 0.0316 µM) 108% [middle of 4 runs]; (compound 0.1 µM) 103% [middle of 4 runs]; (compound 0.316 µM) 109% [middle of 4 runs]; (compound 1 µM) 113% [middle of 4 runs]; (compound 3.16 µM) 113% (2×) and 112% and 119%.

For `CCCS(=O)(=O)Nc1ccc(F)c(C(=O)c2c[nH]c3ncc(-c4ccc(Cl)cc4)cc23)c1F`, the viability, T/C is 113% [middle of 4 runs] (compound 0.0316 µM); 111% [middle of 4 runs] (compound 0.1 µM); 104% [middle of 4 runs] (compound 0.316 µM); 89.3% [middle of 4 runs] (compound 1 µM); 68.9% [middle of 4 runs] (compound 3.16 µM); 34.8% [middle of 4 runs] (compound 10 µM). Also, the IC50 (curve of compound) was 5.82 µM [middle of 4 runs].

As for `CCN1CCN(Cc2ccc(Nc3ncc(F)c(-c4cc(F)c5nc(C)n(C(C)C)c5c4)n3)nc2)CC1`, the viability, T/C is 102% [middle of 4 runs] (compound 0.00316 µM); 97.1% [middle of 4 runs] (compound 0.01 µM); 87% [middle of 4 runs] (compound 0.0316 µM); 67% and 57.2% and 58.3% (2×) (compound 0.1 µM); 56.5% and 44.8% and 49.5% (2×) (compound 0.316 µM); 49.3% [middle of 4 runs] (compound 1 µM).

Consider `CNC(=O)c1ccc(N2C(=S)N(c3ccc(C#N)c(C(F)(F)F)c3)C(=O)C2(C)C)cc1F`, for which the viability, T/C is, setting by setting: (compound 0.0316 µM) 110% [middle of 4 runs]; (compound 0.1 µM) 111% [middle of 4 runs]; (compound 0.316 µM) 113% [middle of 4 runs]; (compound 1 µM) 107% [middle of 4 runs]; (compound 3.16 µM) 98.3% [middle of 4 runs]; (compound 10 µM) 88.7% [middle of 4 runs]. Moreover, where the note is “curve of compound”, the IC50 was above 10 µM.

For the molecule `COc1c(OCCCN2CCOCC2)ccc2c3n(c(=NC(=O)c4cnc(N)nc4)nc12)CCN3`, the viability, T/C was 99.7% [middle of 8 runs] (compound 0.00316 µM); 79.4% [middle of 8 runs] (compound 0.01 µM); 61.3% [middle of 8 runs] (compound 0.0316 µM); 46.3% [middle of 8 runs] (compound 0.1 µM); 31.6% [middle of 8 runs] (compound 0.316 µM); 26% [middle of 8 runs] (compound 1 µM). Besides, under “compound alone, run of 05/09/2023”, the IC50 was 73.8 nM [middle of 8 runs].

For the molecule `C[C@@H](NC(=O)c1ncnc(N)c1Cl)c1ncc(C(=O)Nc2cc(C(F)(F)F)c(Cl)cn2)s1`, the viability, T/C (compound 0.0316 µM) is 139% [middle of 4 runs]; the viability, T/C (compound 3.16 µM) was 77.3% [middle of 4 runs]; the viability, T/C (compound 10 µM) was 64.8% [middle of 4 runs]. Further, the IC50 (curve of compound) is above 10 µM.

Take `Cc1nc(NC(=O)N2CCCC2C(N)=O)sc1-c1ccnc(C(C)(C)C(F)(F)F)c1` (configuration not stated): the viability, T/C reads like this: (compound 0.0316 µM) 98.2% [middle of 8 runs]; (compound 0.1 µM) 88.9% [middle of 8 runs]; (compound 0.316 µM) 75.4% [middle of 8 runs]; (compound 1 µM) 71.2% [middle of 8 runs]; (compound 3.16 µM) 64.6% [middle of 8 runs]; (compound 10 µM) 63% [middle of 7 runs]. Besides, under setting [1], the IC50 is above 10 µM.

Turning to `Cn1cnc2c(F)c(Nc3ccc(Br)cc3Cl)c(C(=O)NOCCO)cc21`, the viability, T/C runs as follows: (compound 0.00949 µM) 72.7% [middle of 4 runs]; (compound 0.03 µM) 64.9% [middle of 4 runs]; (compound 0.0949 µM) 59.5% and 57.3% (2×) and 57.6%; (compound 0.3 µM) 53.2% [middle of 4 runs]; (compound 0.949 µM) 47.3% [middle of 4 runs]; (compound 3 µM) 34.5% [middle of 4 runs]. Moreover, the IC50 (curve of compound) was 431 nM [middle of 4 runs].

Take `Cn1ncnc1[C@H]1c2n[nH]c(=O)c3cc(F)cc(c23)N[C@@H]1c1ccc(F)cc1`: the viability, T/C was 114% and 106% and 107% (2×) (compound 0.000316 µM); 95.2% [middle of 4 runs] (compound 0.00316 µM); 92.4% [middle of 4 runs] (compound 0.01 µM); 94% [middle of 4 runs] (compound 0.0316 µM); 88.7% [middle of 4 runs] (compound 0.1 µM). The IC50 (curve of compound) is above 0.1 µM.
